In the NIST ThermoML archive (doi:10.1021/je060107n):

Test: mn = molality of the nth substance listed, in mol/kg
Conditions: 101 kPa, Liquid; for viscosity: Capillary tube (Ostwald / Ubbelohde) method; for speed of sound: Linear variable-path acoustic interferometer

O=[N+]([O-])[O-].O=[N+]([O-])[O-].[Mg+2] [magnesium nitrate] + O
Conditions	speed of sound, 273.15 K [m/s]	speed of sound, 278.15 K [m/s]	speed of sound, 283.15 K [m/s]	speed of sound, 288.15 K [m/s]	speed of sound, 293.15 K [m/s]	viscosity, 273.15 K [mPa·s]	viscosity, 278.15 K [mPa·s]	viscosity, 283.15 K [mPa·s]	viscosity, 288.15 K [mPa·s]	viscosity, 293.15 K [mPa·s]
m1 = 0.0145	1410.5	1434.8	1449.2	1471.7	1484.3	1.852	1.556	1.339	1.164	1.021
m1 = 0.0528	1415.6	1438.7	1458.5	1477.1	1486.7	1.874	1.58	1.357	1.18	1.038
m1 = 0.2491	1430.4	1451.6	1470.7	1487.6	1501.9	1.958	1.654	1.429	1.244	1.092
m1 = 0.3405	1443	1456.8	1475.6	1491.5	1507	–	–	–	–	–
m1 = 0.5931	–	–	–	–	–	2.122	1.805	1.564	1.367	1.209
m1 = 0.6173	1469.3	1486.9	1503.7	1517.8	1530.1	–	–	–	–	–
m1 = 0.896	1498.6	1514.8	1529	1541.2	1553.1	–	–	–	–	–
m1 = 0.9898	1510.3	1524.8	1538.8	1550.4	1561.5	2.391	2.047	1.775	1.554	1.378
m1 = 1.262	1538	1551.3	1563.1	1573.8	1582.5	2.659	2.268	1.971	1.727	1.53
m1 = 1.525	1566.3	1577.1	1587.6	1596.3	1604.4	–	–	–	–	–
m1 = 1.827	1600.5	1610.1	1617.9	1625.4	1631.9	3.232	2.765	2.4	2.098	1.859
m1 = 2.131	1632	1639.7	1645.2	1650.6	–	3.587	3.062	2.663	2.33	2.064
m1 = 2.493	1664.6	1670.1	1675.2	1677.8	–	–	–	–	–	–
m1 = 2.584	–	–	–	–	–	4.348	3.696	3.207	2.821	2.471
m1 = 2.793	1693.2	1696.9	1700.3	1703.5	–	–	–	–	–	–
m1 = 3.096	–	–	–	–	–	5.355	4.538	3.946	3.408	3.002
m1 = 3.118	1721.2	1723.7	1725.7	1727.3	–	–	–	–	–	–
m1 = 3.17	1730.6	1733	1734.2	1735.3	–	–	–	–	–	–
m1 = 3.329	–	–	–	–	–	5.964	5.056	4.336	3.754	3.308
m1 = 3.501	1752.4	1753.7	1754.9	1755.4	–	–	–	–	–	–
m1 = 3.704	–	–	–	–	–	6.966	5.857	5.02	4.345	3.807
m1 = 3.757	1771.9	1772.4	1771.9	1771.3	–	–	–	–	–	–
m1 = 4.039	–	–	–	–	–	8.21	6.897	5.864	5.051	4.432
m1 = 4.051	1791.3	1791.4	1790.4	1789.6	–	–	–	–	–	–
m1 = 4.285	1808.5	1807.3	1806.3	1804.5	–	–	–	–	–	–
m1 = 4.403	1820.2	1815.4	1813.5	1810.8	–	–	–	–	–	–
m1 = 4.728	–	–	–	–	–	11.85	9.74	8.233	7.067	6.098
m1 = 4.883	–	–	1847.2	1842.3	–	–	–	–	–	–
m1 = 4.907	–	–	–	–	–	–	–	–	7.798	6.799
